In patent US20070032529A1, “Pyrazole compounds and their use as antidiabetes agents” (Japan Tobacco Inc., priority 2005, published 2007):

Molecular target: T1, recombinant human liver glycogen phosphorylase (Homo sapiens, UniProt P06737)
T1 construct: made in house; host or cells: Sf9 insect cells (crude homogenate, diluted, used as the enzyme solution)
T1 sequence (P06737 1-847): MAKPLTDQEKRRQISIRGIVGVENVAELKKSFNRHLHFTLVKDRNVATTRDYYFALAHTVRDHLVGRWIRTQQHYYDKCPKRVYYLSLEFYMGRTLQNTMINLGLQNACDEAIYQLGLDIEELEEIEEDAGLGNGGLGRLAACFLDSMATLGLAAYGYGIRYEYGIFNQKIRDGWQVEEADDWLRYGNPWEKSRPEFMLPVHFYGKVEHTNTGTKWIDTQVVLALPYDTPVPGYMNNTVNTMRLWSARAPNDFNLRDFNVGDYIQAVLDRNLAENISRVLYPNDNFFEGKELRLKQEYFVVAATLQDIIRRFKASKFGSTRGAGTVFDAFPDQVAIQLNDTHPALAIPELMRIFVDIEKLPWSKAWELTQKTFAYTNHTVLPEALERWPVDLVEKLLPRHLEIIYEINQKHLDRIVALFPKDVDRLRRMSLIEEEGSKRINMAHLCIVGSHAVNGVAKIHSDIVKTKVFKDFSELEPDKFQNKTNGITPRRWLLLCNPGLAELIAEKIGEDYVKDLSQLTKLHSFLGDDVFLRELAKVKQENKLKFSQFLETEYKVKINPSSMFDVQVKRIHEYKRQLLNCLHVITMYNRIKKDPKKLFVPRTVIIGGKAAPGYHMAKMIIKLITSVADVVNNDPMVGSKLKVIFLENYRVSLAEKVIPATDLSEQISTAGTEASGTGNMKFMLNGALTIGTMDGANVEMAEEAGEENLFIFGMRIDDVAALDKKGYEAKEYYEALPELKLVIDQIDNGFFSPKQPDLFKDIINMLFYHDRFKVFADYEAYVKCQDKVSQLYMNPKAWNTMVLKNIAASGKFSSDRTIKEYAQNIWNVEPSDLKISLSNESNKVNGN
Experiment: Measuring liver glycogen phosphorylase activity (forward reaction system, NADPH absorbance at 340 nm)
Format: biochemical
Conditions: compound concentration 100 nmol (in parentheses); read-out: inhibition rate (%) at a certain concentration
Procedure: [Pharmacological Test] 1. Exemplary Test (1) Method for Measuring Liver Glycogen Phosphorylase Activity
The measurement of glycogen phosphorylase activity was carried out by a method using the forward reaction system.
The measurement of glycogen phosphorylase activity using the forward reaction system was carried out as follows. Glucose-1-phosphate prepared from glycogen by glycogen phosphorylase was converted into glucono-δ-lactone 6-phosphate through transphosphorylation and dehydrogenation using phosphoglucomutase and glucose-6-phosphate dehydrogenase (G6PDH). NADPH generated from NADP during the dehydrogenation by G6PDH was detected.
A homogenate of the Sf9 cells which expressed exogenously recombinant human liver glycogen phosphorylase was diluted with 100 mmol/LBES buffer solution (pH 6.8, containing 2 mmol/L EDTA) and the dilution was used as the enzyme solution of human liver glycogen phosphorylase. As the substrate, a phosphate buffer (containing 16 mmol/L KH2PO4, 24 mmol/L Na2HPO4) was used. A mixture of 8 U/mL phosphoglucomutase and 60 U/mL G6PDH was prepared in BES buffer solution. Buffer solution (containing 1.4 mmol/L NADP, 30 mmol/L MgCl2, 8 μmol/L glucose-1,6-diphosphate, 8 mg/mL glycogen, 40 mmol/LBES, 0.8 mmol/L EDTA) for reaction and a glucose solution (containing 75 mmol/L glucose, 100 mmol/LBES, 2 mmol/L EDTA) were prepared individually. The test compound was dissolved in 1% DMSO solution.
The enzymatic reaction was begun by adding 20 μL of the recombinant human liver glycogen phosphorylase solution and 20 μL of the mixture of phosphoglucomutase and G6PDH to the mixture of 20 μL of the glucose solution, 20 μL of the substrate, 100 μL of the buffer solution for reaction and 20 μL of the test compound solution. As control, 1% DMSO solution was added instead of the test compound. The mixture without the substrate was used as blank. The absorbance at 340 nm was measured immediately after the reaction started. The absorbance at 340 nm was measured again after reacting at room temperature for 75 minutes. The enzymatic activity is a value obtained by subtracting the blank variation in absorbance over 75 minutes from the variation in absorbance over 75 minutes.
The inhibition rate (%) of the test compound was calculated by the expression “(1-enzymatic activity of test compound/enzymatic activity of control)×100.”
A linear equation was determined from the two concentration points with the 50% inhibition rate therebetween, and the IC50 value was calculated from the concentration at the intersection of the line with the 50% inhibition rate.
“IC50” in the tables indicates the above-described enzyme inhibitory activity with respect to liver glycogen phosphorylase, and the activity to inhibit liver glycogen phosphorylase was represented as ++ when the IC50 value (nmol/L) was less than 100 nmol/L, as + when the IC50 value was between 100 nmol/L and 300 nmol/L. When IC50 is 300 nmol/L or more, an inhibition rate (%) at a certain concentration of the compound (I) of the present invention is shown in Tables. For example, when the inhibition rate is 20% at a concentration of 300 nmol, the rate is described as 20% (300).

Row | Structure (SMILES) | inhibition at 0.1 µM
1 | O=C(NCCc1ccccn1)c1cc(NC(=O)c2cc(F)c(F)cc2Cl)[nH]n1 [Example 1-139] | 22.9%

Same assay, conditions: compound concentration 300 nmol (in parentheses); read-out: inhibition rate (%) at a certain concentration

Row | Structure (SMILES) | inhibition at 0.3 µM
2 | O=C(Nc1cc(C(=O)N(CCCCO)Cc2ccccc2)n[nH]1)c1cc(F)c(F)cc1Cl [Example 1-86] | 17%
3 | O=C(Nc1ccccc1N1CCOCC1)c1cc(NC(=O)c2cc(F)c(F)cc2Cl)[nH]n1 [Example 1-92] | 11.7%
4 | COCCN(CCOC)C(=O)c1cc(NC(=O)c2cc(F)c(F)cc2Cl)[nH]n1 [Example 1-94] | 36.5%
5 | CCC(CC)N(CCOC)C(=O)c1cc(NC(=O)c2cc(F)c(F)cc2Cl)[nH]n1 [Example 1-103] | 21.6%
6 | CCCCN(C(=O)c1cc(NC(=O)c2cc(F)c(F)cc2Cl)[nH]n1)C1CCC(C(=O)OC(C)(C)C)CC1 (centres unmarked) [Example 1-104] | 32.3%
7 | COCCN(Cc1ccccc1)C(=O)c1cc(NC(=O)c2cc(F)c(F)cc2Cl)[nH]n1 [Example 1-108] | 45.3%
8 | CCCCN(C(=O)c1cc(NC(=O)c2cc(F)c(F)cc2Cl)[nH]n1)C1CCNCC1 [Example 1-109] | 33.3%
9 | CCCCN(C(=O)c1cc(NC(=O)c2cc(F)c(F)cc2Cl)[nH]n1)C1CCN(C(=O)C(=O)OCC)CC1 [Example 1-112] | 49.9%
10 | CCCCN(C(=O)c1cc(NC(=O)c2cc(F)c(F)cc2Cl)[nH]n1)C1CCS(=O)(=O)CC1 [Example 1-114] | 38.9%
11 | CCCCN(C(=O)c1cc(NC(=O)c2cc(F)c(F)cc2Cl)[nH]n1)C1CC[S+]([O-])CC1 (centres unmarked) [Example 1-115] | 39.7%

Same assay, conditions: enzyme inhibitory activity with respect to liver glycogen phosphorylase; class symbols

Row | Structure (SMILES) | IC50
12 | CCCCN(C(=O)c1cc(NC(=O)c2cc(F)c(F)cc2Cl)[nH]n1)C1CCCCC1 [Example 1-89] | < 100 nM
13 | CCCCN(CCCC)C(=O)c1cc(NC(=O)c2cc(F)c(F)cc2Cl)[nH]n1 [Example 1-93] | < 100 nM
14 | COCCN(C(=O)c1cc(NC(=O)c2cc(F)c(F)cc2Cl)[nH]n1)C1CCOCC1 [Example 1-97] | < 100 nM
15 | CC(C)OCCN(C(=O)c1cc(NC(=O)c2cc(F)c(F)cc2Cl)[nH]n1)C1CCCCC1 [Example 1-101] | < 100 nM
16 | CCOCCCN(C(=O)c1cc(NC(=O)c2cc(F)c(F)cc2Cl)[nH]n1)C1CCCCC1 [Example 1-102] | < 100 nM
17 | CCCCN(C(=O)c1cc(NC(=O)c2cc(F)c(F)cc2Cl)[nH]n1)C1CCSCC1 [Example 1-105] | 100 to 300 nM
18 | COCCNC(=O)c1cc(NC(=O)c2cc(F)c(F)cc2Cl)[nH]n1 [Example 1-106] | 100 to 300 nM
19 | CCCCN(C(=O)c1cc(NC(=O)c2cc(F)c(F)cc2Cl)[nH]n1)C1CCN(C(C)=O)CC1 [Example 1-110] | < 100 nM
20 | CCCCN(C(=O)c1cc(NC(=O)c2cc(F)c(F)cc2Cl)[nH]n1)C1CCN(S(C)(=O)=O)CC1 [Example 1-111] | 100 to 300 nM
21 | CCN(CC)C(=O)c1ccc(CNC(=O)c2cc(NC(=O)c3cc(F)c(F)cc3Cl)[nH]n2)cc1 [Example 1-118] | < 100 nM
22 | CCN(CC)C(=O)c1cccc(CNC(=O)c2cc(NC(=O)c3cc(F)c(F)cc3Cl)[nH]n2)c1 [Example 1-119] | 100 to 300 nM
23 | CCNC(=O)c1ccc(CNC(=O)c2cc(NC(=O)c3cc(F)c(F)cc3Cl)[nH]n2)cc1 [Example 1-120] | < 100 nM
24 | CCNC(=O)c1cccc(CNC(=O)c2cc(NC(=O)c3cc(F)c(F)cc3Cl)[nH]n2)c1 [Example 1-121] | < 100 nM
25 | NC(=O)c1ccc(CNC(=O)c2cc(NC(=O)c3cc(F)c(F)cc3Cl)[nH]n2)cc1 [Example 1-122] | < 100 nM
26 | CCCN(C(=O)c1cc(NC(=O)c2cc(F)c(F)cc2Cl)[nH]n1)C1CCN(C(=O)CC(=O)O)CC1 [Example 1-124] | < 100 nM
27 | CCCN(C(=O)c1cc(NC(=O)c2cc(F)c(F)cc2Cl)[nH]n1)C1CCN(C(=O)CCC(=O)O)CC1 [Example 1-125] | < 100 nM
28 | O=C(O)CCN(Cc1ccccc1)C(=O)c1cc(NC(=O)c2cc(F)c(F)cc2Cl)[nH]n1 [Example 1-131] | < 100 nM
29 | CCOC(=O)CCN(Cc1ccccc1)C(=O)c1cc(NC(=O)c2cc(F)c(F)cc2Cl)[nH]n1 [Example 1-132] | < 100 nM
